US7485742B2, “Non-glycosidic and non-peptidic inhibitors of selectin, and the use thereof” (Johannes Gutenberg-Universität Mainz, priority 2004, dated 2009)

Experiments:
MM6-cells = experiment: XTT-viability test; format: cell-based; conditions: after 1.5 hours, FIG. 3
Protocol: The XTT-assay (Cell Proliferation Kit II (XTT), Roche molekulare Biochemikalien, Mannheim, Germany) was used for the quantification of the anti-proliferative or cytotoxic effects of the substances as synthesized. The assay is based on the conversion of the yellow tetrazolium-salt XTT into an orange formazan-dye by metabolically active cells. The XTT-formazan-dye is soluble in aqueous solutions, and can be directly determined in a quantitative fashion with an ELISA-reader. The incubation time varies depending from the respective experimental setting (e.g. the kind of cell and the cellular concentrations used). Following the addition of the final XTT-reagent, the absorption was determined at 490 nm, at different points in time (e.g. 30 minutes, 4, 6, 8, 12, and 18 hours). All data were analyzed with Microsoft Excel. The IC50 values were calculated with the program GRAFIT, Erithacus Software Ltd., Great Britain.
Using the commercial available XTT-test kit, the cytotoxic behavior of substances with different structural elements against MM6-cells was examined after 1.5 hours. Structural elements that are responsible for the cytotoxicity were identified. The amide-function in combination with free carboxylic acid-functions was identified as particularly cytotoxic.

[1] = system: adhesion of PMN leukocytes to BAEC monolayer stimulated with TNF-α (selectin-mediated); experiment: Static adhesion assay (leukocyte adhesion to endothelial monolayer); format: cell-based, bovine; conditions: for potency in the static adhesion assay, bimosiamose compared with T3: bimosiamose at 600 μM versus T3 at 100 μM
Protocol: The reduction of adhesion of adhering leukocytes to the monolayer stimulated with TNF-α was set to 0%, the one in the untreated control-wells was set to 100%.
Following seeding in 24 well-plates, the examination of the adhesion was performed using (bovine aorta endothelial cells) BAEC monolayers of the cell passage 1-3 seven days. Before performing the assay, the completeness and the uniformity of the BAEC-monolayer was microscopically ensured. The culture medium (500 ml of medium M199, to which 6 ml of penicillin/streptomycin solution 1%, 6 ml L-glutamine (200 mM) and 100 ml (20%) of fetal calf serum, Sigma, Munich, were added) was removed, and the monolayer was washed twofold with DPBS (1000 μl/well, 37° C.). Subsequent to washing, the cells were treated with the cell culture medium containing 20 ng/ml of recombinant tumor necrosis-factor-alpha (TNFα) (in the presence of the respective test substance, dissolved in dimethylsulfoxide (DMSO) or only with DMSO as vehicle) […] at 37° C. and 5% CO2 for 4 hours. After another twofold washing with DPBS (1000 μl/well, 37° C.) 900 μl of the culture medium and 100 μl of a PMN-suspension (10^6 cells per ml) were added per well, and incubated for 30 minutes at 37° C. and 5% CO2. Non-adherent cells were removed by twofold washing with DPBS (1000 μl/well, 37° C.). […]
The BAEC-sections were analyzed with an inverse Leica DM IRS-microscope (Leica, Bensheim, Germany) at 100-fold magnification. […] For the manual counting of PMNs, several randomly selected sections of 0.25 mm^2 in size from the centre of the respective well of the well-plate were counted. […] In order to do so, each PMN in the area as chosen was counted by a PC-mouse click, and the counted cells were labeled. […]
The analysis of the pictures was performed using the publicly available ImageJ-software (available at http://rsb.info.nih.gov/ij), installed on a standard-PC (Maxdata, Mergel, Germany). All pictures as obtained in a test run were grouped into an series, and then analyzed in an automated method using a specifically programmed macro. […]

selectins = conditions: cited from earlier work

Structure (SMILES)	cytotoxic behavior (XTT) (MM6-cells)	potency in the static adhesion assay, bimosiamose compared with T3 [1]	effect on the reduction of the adhesion (potency) ([1]; static assay, FIG. 1, leukocytes on TNF-α-stimulated BAEC monolayer, 10^-4-10^-7 mol/l tested)	affinity to the selectins compared to sLeX (selectins)
CS(=O)(=O)c1ccc(C2=C(c3ccccc3)C(=O)OC2)cc1 [Rofecoxib]	has cytotoxic effects			
CCCCCCCCCCOc1cc(OCCCCCCCCCC)cc(OCCCCCC(=O)N(c2ccc(C(=O)O)cc2)c2ccc(C(=O)O)cc2)c1 [T3, 6-(3,5-Didecyloxyphenoxy)-hexanoic acid-N,N-bis(4-carboxyphenyl)amide]		about the same potency		
CCCCCCCCCCOc1cc(OCCCCCCCCCC)cc(OCCCCCCN(c2ccc(C(=O)O)cc2)c2ccc(C(=O)O)cc2)c1 [T21, 4-(N-(6-(3,5-bis(decyloxy)phenoxy)hexyl)-N-(4-carboxyl-phenyl)amino)benzoic acid]	completely non-toxic		highly potent	
O=C(O)Cc1cccc(-c2cc(CCCCCCc3ccc(O[C@H]4O[C@H](CO)[C@@H](O)[C@H](O)[C@@H]4O)c(-c4cccc(CC(=O)O)c4)c3)ccc2O[C@H]2O[C@H](CO)[C@@H](O)[C@H](O)[C@@H]2O)c1 [bimosiamose, 1,6-bis[3-(3-carboxymethylphenyl)-4-(2-alpha-D-mannopyranosyloxy)phenyl]hexane]		about the same potency		essentially higher affinity
